Experimental data: patent US11191265B2, “Method of reducing crop damage” (Bayer CropScience Aktiengesellschaft, priority 2016, dated 2021)

Experiments:
Type in all cases: in vivo
[1] = tested on: Wheat (winter wheat, TRZAW); assay: Method C: safener seed treatment, then post-emergence herbicide plus safener tank mix, greenhouse pot test, crop damage scored visually; conditions: 20 days after post-emergence application at BBCH11; herbicide 300 g/ha; safener (mefenpyr-diethyl) seed treatment 0.5 g/kg and 200 g/ha in tank mix where combined; vs untreated controls; mean of at least 3 replicates
Procedure: (§1) Wheat seeds (winter wheat, TRZAW) were placed in sandy loam soil in pots of a diameter of 7 cm, covered with soil and cultivated in a greenhouse under good growth conditions.
(§2) For the safener seed treatment, sufficient seeds were weighed into screw top glass bottles approximately twice the volume of the seeds.
(§3) The safener (mefenpyr-diethyl, formulated as wettable powder; WP) was weighed out so that the required rates (g a.i./kg seed) would be obtained, dissolved in water (1 ml water per 10 g of seeds), and added to the seeds to produce a slurry.
(§4) The bottles were capped and then placed in an overhead shaker (set at medium speed for up to 1 hour) so that the seeds were evenly coated with the slurry. The bottles were uncapped and the seeds were sown as described above.
Post-emergence application was done when the plants had reached growth stage BBCH11.
(§5) The safener (mefenpyr-diethyl) was formulated as wettable powder (WP).
(§6) The compounds were sprayed onto the green parts of the plants as an aqueous suspension at an equivalent water application rate of 300 l/ha with addition of 0.2% wetting agent (Agrotin).
(§7) The combination of herbicide and safener was applied as a tank mix.
(§8) After application, the test plants were kept in the greenhouse under good growth conditions.
(§9) Values in the table below are mean values from at least 3 replicates.

[2] = tested on: Wheat (winter wheat, TRZAW); assay: Method A: safener seed treatment, then post-emergence herbicide, greenhouse pot test, crop damage scored visually; conditions: 20 days after post-emergence application at BBCH11; herbicide 300 g/ha; safener (mefenpyr-diethyl) seed treatment 0.5 g/kg where combined; vs untreated controls; mean of at least 3 replicates
Procedure: as §1, §2, §3, §4
Post-emergence application of the herbicide was done when the plants had reached growth stage BBCH11.
as §8, §9

[3] = tested on: Wheat (winter wheat, TRZAW); assay: Method D: safener seed treatment, then pre-emergence herbicide plus safener tank mix, greenhouse pot test, crop damage scored visually; conditions: 21 days after pre-emergence application to the soil surface; herbicide 300 g/ha; safener (mefenpyr-diethyl) seed treatment 0.5 g/kg and 200 g/ha in tank mix where combined; vs untreated controls; mean of at least 3 replicates
Procedure: as §1, §2, §3, §4
The compounds were sprayed to the soil surface as an aqueous suspension at an equivalent water application rate of 300 l/ha with addition of 0.2% wetting agent (Agrotin).
as §7, §8, §9

[4] = tested on: Wheat (winter wheat, TRZAW); assay: Prior-art method: post-emergence herbicide with or without safener in tank mix, greenhouse pot test, crop damage scored visually; conditions: 20 days after post-emergence application at BBCH11; herbicide 300 g/ha; safener (mefenpyr-diethyl) 200 g/ha in tank mix where combined; vs untreated controls; mean of at least 3 replicates
From the text: 1. Method as Used in the Prior Art
as §1
Post-emergence application was done when the plants had reached growth stage BBCH11 (BBCH is the international coding system for the growth stage of crops and weeds).
as §5, §6, §7, §8, §9

CC1(C)CON(Cc2ccc(Cl)cc2Cl)C1=O [Herbicide post-em., 2-(2,4-dichlorophenyl)methyl-4,4-dimethyl-3-isoxazolidinone]
% chlorosis [1]: 40% | % growth depression [1]: 40% | % chlorosis [2]: 40% | % growth depression [2]: 40% | % chlorosis [3]: 17% | % growth depression [3]: 27% | % chlorosis [4]: 40% | % growth depression [4]: 40%
